Measurements published in patent publication US7981883B2, “Substituted spiro-compounds and the use thereof for producing medicaments” (Gruenenthal GmbH, priority 2005, dated 2011).

Tests used:
Assay type in all cases: cell-based
VR1 (human) = molecular target: T1, VR1 (human) (Homo sapiens, UniProt Q8NER1); assay: Functional FLIPR Ca2+ inflow assay on VR1 (human), CHO K1 cells stably transfected with the VR1 gene; details: test compound 10 μM; for VR1 (human) (% inhibition compared to 10 μM CP) / inhibition at 10 µM: then 100 nM capsaicin after 5 min, relative to maximum inhibition with 10 μM capsaicin; for VR1 (human) (% stimulation compared to 10 μM CP) / activation at 10 µM: Ca2+ signal relative to 10 μM capsaicin (CP); for inhibition at 10 µM / activation at 10 µM: CHO-K1; for inhibition at 10 µM: read-out: VR1 (human) (% inhibition compared to 10 μM CP); for activation at 10 µM: read-out: VR1 (human) (% stimulation compared to 10 μM CP)
T1 construct: expressed in transfected cells; host or cells: CHO K1 cells (ECACC)
From the text: II. Functional Testing Carried Out on the Vanilloid Receptor (VR1)
The agonistic or antagonistic effect of the substances to be tested can also be determined on the vanilloid receptor (VR1) using the following assay. According to this assay, the Ca^2+ inflow is quantified through the channel using a Ca^2+-sensitive dye (type Fluo-4, Molecular Probes Europe BV, Leiden, Netherlands) in a fluorescent imaging plate reader (FLIPR, Molecular Devices, Sunnyvale, USA).
Chinese hamster ovary cells (CHO K1 cells, European Collection of Cell Cultures (ECACC) United Kingdom) were stably transfected with the VR1 gene. For functional testing, these cells were plated out on poly-D-lysine-coated black 96 well plates having a clear base (BD Biosciences, Heidelberg, Germany) at a density of 25,000 cells/well. The cells were incubated overnight at 37° C. and 5% CO2 in a culture medium (Ham's F12 nutrient mixture, 10% by volume of FCS (foetal calf serum), 18 μg/ml L-proline). The next day the cells were incubated with Fluo-4 (Fluo-4 2 μM, 0.01% by volume of Pluronic F127, Molecular Probes in HBSS (Hank's buffered saline solution), Gibco Invitrogen GmbH, Karlsruhe, Germany) for 30 minutes at 37° C. Subsequently, the plates were washed three times with HBSS buffer and after further incubation for 15 minutes at room temperature used for Ca^2+ measurement in a FLIPR assay. The Ca^2+-dependent fluorescence was measured before and after the addition of the substances to be tested (λex wavelength=488 nm, λem=540 nm). Quantification was carried out by measuring the highest fluorescence intensity (FC, Fluorescence Counts) over time.
The FLIPR protocol consists of 2 substance additions. First the compounds to be tested (10 μM) were pipetted onto the cells and the Ca^2+ inflow was compared with the control (capsaicin 10 μM) (% activation based on the Ca^2+ signal after the addition of 10 μM capsaicin). After 5 minutes' incubation, 100 nM of capsaicin were administered and the Ca^2+ inflow was also determined.
Desensitising agonists and antagonists led to suppression of the Ca^2+ inflow. The % inhibition was calculated compared to the maximum achievable inhibition with 10 μM of capsaicin.

VR1 (rat) [1] = molecular target: T2, VR1 (rat) (Rattus norvegicus, UniProt O35433); assay: Functional FLIPR Ca2+ inflow assay on rat-species vanilloid receptor 1 in rat dorsal root ganglia cells; details: test compound 10 μM; for VR1 (rat) (% inhibition compared to 10 μM CP) / inhibition at 10 µM: then 100 nM capsaicin after 5 min, relative to maximum inhibition with 10 μM capsaicin; for VR1 (rat) (% stimulation compared to 10 μM CP) / activation at 10 µM: Ca2+ signal relative to 10 μM capsaicin (CP); for inhibition at 10 µM: read-out: VR1 (rat) (% inhibition compared to 10 μM CP); for activation at 10 µM: read-out: VR1 (rat) (% stimulation compared to 10 μM CP)
T2 construct: from tissue; host or cells: primary cells dissociated from rat dorsal root ganglia
From the text: I. Functional Testing Carried Out on the Vanilloid Receptor 1 (VR1/TRPV1 Receptor)
The agonistic or antagonistic effect of the substances to be tested can be determined on the rat-species vanilloid receptor 1 (VR1/TRPV1) using the following assay. According to this assay, the Ca^2+ inflow is quantified through the receptor channel using a Ca^2+-sensitive dye (type Fluo-4, Molecular Probes Europe BV, Leiden, Netherlands) in a fluorescent imaging plate reader (FLIPR, Molecular Devices, Sunnyvale, USA).
Complete medium: 50 mL HAMS F12 nutrient mixture (Gibco Invitrogen GmbH, Karlsruhe, Germany) with
10% by volume of FCS (foetal calf serum, Gibco Invitrogen GmbH, Karlsruhe, Germany, […]);
2 mM L-glutamine (Sigma, Munich, Germany);
1% by weight of AA solution (antibiotic/antimyotic solution, PAA, Pasching, Austria) and 25 ng/ml NGF medium (2.5 S, Gibco Invitrogen GmbH, Karlsruhe, Germany)
Cell culture plate: Poly-D-lysine-coated, black 96 well plates having a clear base (96 well black/clear plate, BD Biosciences, Heidelberg, Germany) were additionally coated with laminin (Gibco Invitrogen GmbH, Karlsruhe, Germany), the laminin being diluted with PBS (Ca—Mg-free PBS, Gibco Invitrogen GmbH, Karlsruhe, Germany) to a concentration of 100 μg/mL. Aliquots having a laminin concentration of 100 μg/mL were removed and stored at −20° C. The aliquots were diluted with PBS in a ratio of 1:10 to 10 μg/mL laminin and in each case 50 μL of the solution were pipetted into a recess in the cell culture plate. The cell culture plates were incubated for at least two hours at 37° C., the excess solution was removed by suction-filtration and the recesses were each washed twice with PBS. The coated cell culture plates were stored with excess PBS which was not removed until just before the feeding of the cells.
The vertebral column was removed from decapitated rats and placed immediately into cold HBSS buffer (Hank's buffered saline solution, Gibco Invitrogen GmbH, Karlsruhe, Germany), i.e. buffer located in an ice bath, mixed with 1% by volume (percent by volume) of an AA solution (antibiotic/antimyotic solution, PAA, Pasching, Austria). The vertebral column was cut longitudinally and removed together with fasciae from the vertebral canal. Subsequently, the dorsal root ganglia (DRG) were removed and again stored in cold HBSS buffer mixed with 1% by volume of an AA solution. The DRG, from which all blood remnants and spinal nerves had been removed, were transferred in each case to 500 μL of cold type 2 collagenase (PAA, Pasching, Austria) and incubated for 35 minutes at 37° C. After the addition of 2.5% by volume of trypsin (PAA, Pasching, Austria), incubation was continued for 10 minutes at 37° C. After complete incubation, the enzyme solution was carefully pipetted off and 500 μL of complete medium were added to each of the remaining DRG. The DRG were in each case suspended several times, drawn through cannulae No. 1, No. 12 and No. 16 using a syringe and transferred to a 50 mL Falcon tube which was filled up to 15 mL with complete medium. The contents of each Falcon tube was in each case filtered through a 70 μm Falcon filter element and centrifuged for 10 minutes at 1,200 rpm and room temperature. The resulting pellet was in each case taken up in 250 μL of complete medium and the number of cells determined.
The number of cells in the suspension was set to 3×10^5 per mL and 150 μL of this suspension were in each case introduced into a recess in the cell culture plates coated as described hereinbefore. In the incubator the plates were left for two to three days at 37° C., 5% by volume of CO2 and 95% relative humidity. […]

VR1 (rat) [2] = molecular target: T2, VR1 (rat); assay: as above; details: against capsaicin (CAP)

T1 sequence (Q8NER1 whole entry): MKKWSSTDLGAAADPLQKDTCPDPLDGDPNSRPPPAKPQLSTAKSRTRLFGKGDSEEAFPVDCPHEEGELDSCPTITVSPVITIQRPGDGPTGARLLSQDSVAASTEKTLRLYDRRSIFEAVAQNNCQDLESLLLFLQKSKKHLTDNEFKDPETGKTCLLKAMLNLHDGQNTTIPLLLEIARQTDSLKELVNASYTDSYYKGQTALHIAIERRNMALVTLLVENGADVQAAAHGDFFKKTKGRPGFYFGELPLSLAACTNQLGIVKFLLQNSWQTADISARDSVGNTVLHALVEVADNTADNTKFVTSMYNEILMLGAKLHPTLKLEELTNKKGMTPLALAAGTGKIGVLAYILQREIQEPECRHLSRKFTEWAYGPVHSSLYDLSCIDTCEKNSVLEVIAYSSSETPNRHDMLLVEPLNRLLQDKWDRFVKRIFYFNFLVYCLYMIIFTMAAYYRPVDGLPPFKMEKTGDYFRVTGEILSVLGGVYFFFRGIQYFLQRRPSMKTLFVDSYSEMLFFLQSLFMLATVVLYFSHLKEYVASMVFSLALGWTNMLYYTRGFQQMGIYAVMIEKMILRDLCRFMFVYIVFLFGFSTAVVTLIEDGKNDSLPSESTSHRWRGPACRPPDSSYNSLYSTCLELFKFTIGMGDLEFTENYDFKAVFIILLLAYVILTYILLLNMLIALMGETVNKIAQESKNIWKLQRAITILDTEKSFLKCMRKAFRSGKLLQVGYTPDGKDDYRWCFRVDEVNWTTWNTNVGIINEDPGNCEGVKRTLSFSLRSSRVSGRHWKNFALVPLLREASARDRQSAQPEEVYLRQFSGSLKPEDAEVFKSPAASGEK
T2 sequence (O35433 whole entry): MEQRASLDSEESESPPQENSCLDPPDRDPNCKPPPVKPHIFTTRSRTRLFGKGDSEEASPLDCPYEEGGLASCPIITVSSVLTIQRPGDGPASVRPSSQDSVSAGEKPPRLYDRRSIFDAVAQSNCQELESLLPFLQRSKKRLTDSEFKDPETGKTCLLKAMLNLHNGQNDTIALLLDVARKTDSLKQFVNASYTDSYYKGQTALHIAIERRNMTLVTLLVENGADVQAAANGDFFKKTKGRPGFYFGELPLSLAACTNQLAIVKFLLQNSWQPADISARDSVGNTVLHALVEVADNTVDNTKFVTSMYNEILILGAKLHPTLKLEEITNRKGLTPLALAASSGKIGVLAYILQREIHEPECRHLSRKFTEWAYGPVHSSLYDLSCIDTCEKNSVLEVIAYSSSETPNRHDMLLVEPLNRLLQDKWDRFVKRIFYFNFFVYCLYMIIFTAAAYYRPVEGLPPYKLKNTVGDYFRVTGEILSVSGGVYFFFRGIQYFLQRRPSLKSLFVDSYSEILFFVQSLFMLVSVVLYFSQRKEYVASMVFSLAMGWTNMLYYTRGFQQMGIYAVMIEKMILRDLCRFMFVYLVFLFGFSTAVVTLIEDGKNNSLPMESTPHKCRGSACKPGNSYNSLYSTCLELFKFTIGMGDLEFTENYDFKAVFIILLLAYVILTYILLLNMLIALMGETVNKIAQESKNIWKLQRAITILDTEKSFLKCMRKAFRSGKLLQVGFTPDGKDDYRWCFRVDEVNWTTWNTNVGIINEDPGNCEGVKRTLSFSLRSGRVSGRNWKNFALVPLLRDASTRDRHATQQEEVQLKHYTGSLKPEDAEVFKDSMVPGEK

Structure (SMILES)	VR1 (human) (% inhibition compared to 10 μM CP) (VR1 (human))	VR1 (human) (% stimulation compared to 10 μM CP) (VR1 (human))	VR1 (rat) (% inhibition compared to 10 μM CP) (VR1 (rat) [1])	VR1 (rat) (% stimulation compared to 10 μM CP) (VR1 (rat) [1])	inhibition at 10 µM (VR1 (human))	activation at 10 µM (VR1 (human))	inhibition at 10 µM (VR1 (rat) [1])	activation at 10 µM (VR1 (rat) [1])	IC50 (VR1 (rat) [2])	Ki (VR1 (rat) [2])
COc1cc2c(cc1OC)CN(C(=O)C1=NO[C@]3(CC[C@H](C(C)(C)C)CC3)C1)CC2 [Example 18, trans-(8-tert-butyl-1-oxa-2-azaspiro[4.5]dec-2-en-3-yl)-(6,7-dimethoxy-3,4-dihydro-1H-isoquinolin-2-yl)methanone]	22.05%	24.24%	97.62%	84.04%	–	–	–	–	–	–
CC(C)(C)[C@H]1CC[C@@]2(CC1)CC(C(=O)N1CCN(c3ccc(O)cc3)CC1)=NO2 [Example 11, cis-(8-tert-butyl-1-oxa-2-azaspiro[4.5]dec-2-en-3-yl)-[4-(4-hydroxyphenyl)piperazin-1-yl]methanone]	28.56%	−0.05%	62.42%	−0.37%	–	–	–	–	–	–
CC(C)(C)C1CCC2(CC1)CC(C(=O)N1CCCN(c3ncccc3Cl)CC1)=NO2 (stereo not drawn) [Example 21, trans-(8-tert-butyl-1-oxa-2-azaspiro[4.5]dec-2-en-3-yl)-[4-(3-chloropyridin-2-yl)-[1,4]diazepan-1-yl]methanone]	6.75%	−0.05%	52.32%	0.37%	–	–	–	–	–	–
CC(C)(C)C1CCC2(CC1)CC(C(=O)NCc1ccncc1)=NO2 (stereo not drawn) [Example 23, trans-8-tert-butyl-1-oxa-2-azaspiro[4.5]dec-2-ene-3-carboxylic acid (pyridin-4-ylmethyl)amide]	54.21%	23.79%	69.46%	55.21%	–	–	–	–	–	–
COc1cc2c(cc1OC)CN(C(=O)C1=NO[C@]3(CC[C@@H](C(C)(C)C)CC3)C1)CC2 [Example 19, cis-(8-tert-butyl-1-oxa-2-azaspiro[4.5]dec-2-en-3-yl)-(6,7-dimethoxy-3,4-dihydro-1H-isoquinolin-2-yl)methanone]	22.55%	13.41%	95.49%	70.81%	–	–	–	–	–	–
CC(C)(C)[C@H]1CC[C@]2(CC1)CC(C(=O)NCc1ccc(NS(C)(=O)=O)c(F)c1)=NO2 [Example 25, trans-8-tert-butyl-1-oxa-2-azaspiro[4.5]dec-2-ene-3-carboxylic acid-3-fluoro-4-methanesulphonylaminobenzylamide]	–	–	–	–	56.5%	0.16%	98.3%	1.04%	–	–
CC(C)(C)C1CCC2(CC1)CC(C(=O)N1CCc3cc(O)c(O)cc3C1)=NO2 (centres unmarked) [Example 12, (8-tert-butyl-1-oxa-2-azaspiro[4.5]dec-2-en-3-yl)-(6,7-dihydroxy-3,4-dihydro-1H-isoquinolin-2-yl)methanone]	–	–	–	–	79.9%	101%	94.3%	112%	–	–
CC(C)(C)c1ccc(NC(=O)C2CCC3(CC2)CC(c2ccccc2)=NO3)cc1 (centres unmarked) [Example 50, 3-phenyl-1-oxa-2-azaspiro[4.5]dec-2-ene-8-carboxylic acid-(4-tert-butylphenyl)amide]	–	–	–	–	64%	15%	97%	60%	545 nM	63.7 nM
COc1cccc(C2=NOC3(CCC(C(=O)Nc4ccc(C(C)(C)C)cc4)CC3)C2)c1 (centres unmarked) [Example 66, N-(4-tert-butylphenyl)-3-(3-methoxyphenyl)-1-oxa-2-azaspiro[4.5]dec-2-ene-8-carboxamide]	–	–	–	–	54%	53%	101%	87%	–	–
